{"source": "patent US20090030017A1", "about": "“THERAPEUTIC AGENT FOR DYSKINESIA” (Eisai R & D Management Co., Ltd, priority 2005, published 2009)", "key": {"dyskinesia [1]": {"tested_on": "dyskinesia", "details": "rhesus monkey models; cited from earlier work"}, "[2]": {"tested_on": "L-DOPA induced dyskinesia", "test": "L-DOPA induced dyskinesia model in monkey (MPTP-treated, L-DOPA methylester and benserazide)", "format": "in vivo, crab-eating macaques", "details": "substance administered 20 minutes before L-DOPA methylester and benserazide, scored every 30 minutes for 5 hours", "description": "To male crab-eating macaques, MPTP (1-methyl-4-phenyl-1,2,3,6-tetrahydropyridine) was frequently administered intravenously or subcutaneously in a dose of 0.2 to 1 mg/kg to cause Parkinson's disease.\nIn order to check the effect of the substance to be tested, i.e., 3-(2-cyanophenyl)-5-(2-pyridyl)-1-phenyl-1,2-dihydropyridine-2-on, the administration dose of L-DOPA methylester was adjusted to control the severity of the dyskinesia to a certain state.\nThe behavior before the administration of drugs (L-DOPA methylester and benserazide) was recorded, and then the substance to be tested was administered. 20 minutes after that, L-DOPA methylester and benserazide were administered.\nThe severity of the symptoms of Parkinson's disease was evaluated based on the items shown in Table 1 in a blinded manner, and shown as the total score.\nThe dyskinesia induced by the side effects of the administration of L-DOPA methylester and benserazide was evaluated based on the items shown in Table 2 in a blinded manner. […]\nThe symptoms were evaluated in a time-series manner before the administration of the drugs, and every 30 minutes after the administration of the drugs, for a total of 5 hours. The effect of the substance to be tested was determined as follows. […]"}, "dyskinesia [3]": {"tested_on": "dyskinesia", "details": "cited from earlier work"}, "dyskinesia [4]": {"tested_on": "dyskinesia", "details": "cited from earlier work", "remark": "listed apart in the source"}}, "note": "Read-outs that look alike come from different tables or passages of the source.", "data": [{"smiles": "CCN(CC)Cc1cccc(C=Cc2nc3ccc(F)cc3c(=O)n2-c2ccccc2Cl)n1", "note": "[3-(2-chlorophenyl)-2-[2-(6-diethylaminomethylpyridine-2-yl)-vinyl]-6-fluoro-3H-quinazoline-4-on]", "values": [{"measurement": "effect on dyskinesia", "setting": "dyskinesia [1]", "value": "has an effect on dyskinesia"}]}, {"smiles": "N#Cc1ccccc1-c1cc(-c2ccccn2)cn(-c2ccccc2)c1=O", "note": "[3-(2-cyanophenyl)-5-(2-pyridyl)-1-phenyl-1,2-dihydropyridine-2-on]", "values": [{"measurement": "effect on dyskinesia (dyskinesia score, severity of dyskinesia)", "setting": "[2]; FIG. 1, significant vs solvent P<0.01", "value": "provided an dyskinesia suppressing action"}, {"measurement": "effect on the symptoms of Parkinson's disease (total score)", "setting": "[2]; FIG. 2, significant vs solvent P<0.05, P<0.01", "value": "clearly improving the symptoms of Parkinson's disease"}]}, {"smiles": "CC(=O)N1N=C(c2ccc(N)cc2)c2cc3c(cc2C[C@H]1C)OCO3", "note": "[LY-300164, Talampanel]", "values": [{"measurement": "effect on dyskinesia", "setting": "dyskinesia [3]; MPTP-treated monkeys with L-DOPA induced dyskinesia", "value": "the dyskinesia were improved"}, {"measurement": "effect on the symptoms of Parkinson's disease (symptom scores)", "setting": "dyskinesia [3]; experiment with the monkeys", "value": "not recognized as having an effect of clearly improving the symptoms of Parkinson's disease"}]}, {"smiles": "CC1(C)O[C@@H]2[C@@H](CO[C@@]3(COS(N)(=O)=O)OC(C)(C)O[C@@H]23)O1", "note": "[Topiramate]", "values": [{"measurement": "effect on the symptoms of Parkinson's disease", "setting": "dyskinesia [4]; in vivo", "value": "shows a tendency of deteriorating the symptoms of Parkinson's disease, although not significantly"}, {"measurement": "effect on dyskinesia", "setting": "dyskinesia [4]; marmoset models", "value": "has an action of suppressing dyskinesia"}]}]}
